From PubChem BioAssay AID1963871 (Molecular Pharmacology Branch, DTP, NCI, 2024)

Tested on: KRAS-mutant PDC multicell tumor spheroid viability
Experiment: Anticancer human tumor 521955-158-R2-J5-PDC patient-derived pancreatic carcinoma cell line growth inhibition [KRAS2]
Details: for IC50: curve of first compound; for viability, T/C: stronger effect = lower value; active means viability on the fitted dose curve at most 10% of control; inactive means the rest
Source text: Multicellular complex tumor spheroid response to RAS pathway inhibitors in combination with a targeted agents in patient-derived cell lines with oncogenic KRAS variants from multiple cancer types
A high-throughput screen of multi-cell type tumor spheroids was designed to identify active combinations of targeted small molecules and KRAS pathway inhibitors. Complex spheroids include a stromal component modeled by human endothelial cells (HUVEC) and fibroblasts modeled by human mesenchymal stem cells (MSCs). The concentration ranges selected for each drug and investigational agent were based upon clinically achievable concentrations if the clinical Cmax of the agent was known.
Compounds. The drugs and investigational agents: BI-3406 (NSC825286), BAY-293 (NSC824723), batoprotafib (TNO155; NSC825523), sotorasib (AMG 510; NSC818433), MRTX1257 (NSC819558), elimusertib (BAY 1895344; NSC800525), molibresib (GSK525762; NSC774829), temuterkib (LY3214996; NSC803410), venetoclax (NSC766270), alisertib (NSC759677), olaparib (NSC753686), talazoparib (NSC767125), erdafitinib (NSC781556), ipatasertib (NSC767898), cabozantinib (NSC761068), nintedanib (NSC756659), abemaciclib (NSC768073), docetaxel (NSC628503), trametinib (NSC758246), and sapanisertib (NSC764658) were obtained from the National Cancer Institute (NCI) Developmental Therapeutics Program Chemical Repository. The FDA-approved anticancer drug set is available from the Developmental Therapeutics Program. […] The stock solutions were prepared in dimethyl sulfoxide (DMSO, Sigma-Aldrich, St. Louis, MO, cat. D2650) at 800-fold the tested concentration and stored at -70 degrees C prior to their use. All drugs and investigational agents were tested over a range starting from a high concentration at or near the clinical Cmax and decreasing in half-log increments. If the clinical Cmax for an agent had not been determined, the highest concentration tested was 10 microM.
Cell Culture. All cells were maintained in an incubator at 37 degrees C and 5% CO2 with 95% humidity. The PDC lines were cultured according to standard operating procedures established by the NCI PDMR (https://pdmr.cancer.gov/sops/default.htm). Briefly, all PDCs were thawed and cultured in Matrigel-coated flasks prepared with a working solution of 1X Ham's F-12 nutrient mix, without supplementation (Invitrogen, Waltham, MA, cat. 11765054), 100 U/mL penicillin-streptomycin (Invitrogen, cat. 15140122), and 2.5% Matrigel (Corning Inc., Corning, NY, cat. 354248) for the first three passages. All PDCs were cultured in complete DMEM/F-12 media containing advanced DMEM/F-12 (Invitrogen, cat. 12634028), 4.9% defined fetal bovine serum, heat inactivated (HyClone Laboratories Inc., Logan, UT, cat. SH30070.03HI), 389 ng/mL hydrocortisone (Sigma-Aldrich, cat. H4001), 9.7 ng/mL human EGF recombinant protein (Invitrogen, cat. PHG0313), 23.4 microg/mL adenine (Sigma-Aldrich, cat. A2786), 97.3 U/mL penicillin-streptomycin (Invitrogen, cat. 15140122), 1.9 mM L-glutamine (Invitrogen, cat. 25030081), and 9.7 microM Y-27632 dihydrochloride (Tocris Bioscience, Bristol, United Kingdom, cat. 1254). The PDCs were cultured in complete DMEM/F12 media without 9.7 microM Y-27632 dihydrochloride for at least two passages prior to the screen. The established cell line HOP-62 was cultured in RPMI 1640 medium, HEPES (Invitrogen, cat. 22400105) with 10% defined fetal bovine serum (HyClone Laboratories Inc., cat. SH30070.03) and 2 mM L-glutamine (Invitrogen, cat. 25030081). The pooled donor HUVEC were cultured in endothelial cell growth medium 2 (PromoCell, Heidelberg, Germany, cat. C-22011) and the hMSC were cultured in mesenchymal stem cell growth medium 2 (PromoCell, cat. C-28009). For all experiments, HUVEC and hMSC were used at passages </=5, while the malignant cell lines were used at passages </=15. […]

[1] = second compound 0.1 µM, first compound 0.0316 µM
[2] = second compound 0.316 µM, first compound 0.0316 µM
[3] = second compound 1 µM, first compound 0.0316 µM
[4] = second compound 3.16 µM, first compound 0.0316 µM
[5] = second compound 10 µM, first compound 0.0316 µM
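Further: viability read after seven days of drug exposure.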

CC(=O)Nc1cccc(-n2c(=O)n(C3CC3)c(=O)c3c(Nc4ccc(I)cc4F)n(C)c(=O)c(C)c32)c1 + C=CC(=O)N1CCN(c2nc(=O)n(-c3c(C)ccnc3C(C)C)c3nc(-c4c(O)cccc4F)c(F)cc23)C(C)C1
1000 pM: IC50 (second compound 1 µM)
< 100 pM: IC50 (second compound 10 µM)
inactive: viability, T/C (second compound 0.1 µM, first compound 0.0001 µM) 84.6% | viability, T/C (second compound 0.1 µM, first compound 0.000316 µM) 52.6% | viability, T/C (second compound 0.1 µM, first compound 0.001 µM) 41.3% | viability, T/C (second compound 0.1 µM, first compound 0.00316 µM) 30.1% | viability, T/C (second compound 0.1 µM, first compound 0.01 µM) 25.8% | viability, T/C [1] 15.7% | viability, T/C (second compound 0.316 µM, first compound 0.0001 µM) 89.7% | viability, T/C (second compound 0.316 µM, first compound 0.000316 µM) 51.9% | viability, T/C (second compound 0.316 µM, first compound 0.001 µM) 38.2% | viability, T/C (second compound 0.316 µM, first compound 0.00316 µM) 31.4% | viability, T/C (second compound 0.316 µM, first compound 0.01 µM) 28.9% | viability, T/C [2] 19.6% | viability, T/C (second compound 1 µM, first compound 0.0001 µM) 87.9% | viability, T/C (second compound 1 µM, first compound 0.000316 µM) 61% | viability, T/C (second compound 1 µM, first compound 0.001 µM) 54.7% | viability, T/C (second compound 1 µM, first compound 0.00316 µM) 36.6% | viability, T/C (second compound 1 µM, first compound 0.01 µM) 32.9% | viability, T/C [3] 24.5% | viability, T/C (second compound 3.16 µM, first compound 0.0001 µM) 63.5% | viability, T/C (second compound 3.16 µM, first compound 0.000316 µM) 51.7% | viability, T/C (second compound 3.16 µM, first compound 0.00316 µM) 33.5% | viability, T/C (second compound 3.16 µM, first compound 0.01 µM) 29.5% | viability, T/C [4] 18.5% | viability, T/C (second compound 10 µM, first compound 0.0001 µM) 50.6% | viability, T/C (second compound 10 µM, first compound 0.000316 µM) 37.1% | viability, T/C (second compound 10 µM, first compound 0.001 µM) 28.8% | viability, T/C (second compound 10 µM, first compound 0.00316 µM) 32.4% | viability, T/C (second compound 10 µM, first compound 0.01 µM) 25% | viability, T/C [5] 17.8%
444 pM: IC50 (second compound 3.16 µM)
493 pM: IC50 (second compound 0.1 µM)
426 pM: IC50 (second compound 0.316 µM)

COc1cc(Nc2ncc3c(n2)-c2ccc(Cl)cc2C(c2c(F)cccc2OC)=NC3)ccc1C(=O)O + C=CC(=O)N1CCN(c2nc(=O)n(-c3c(C)ccnc3C(C)C)c3nc(-c4c(O)cccc4F)c(F)cc23)C(C)C1
inactive: viability, T/C [1] 47.6% | viability, T/C (second compound 0.1 µM, first compound 0.1 µM) 49.3% | viability, T/C (second compound 0.1 µM, first compound 0.316 µM) 43% | viability, T/C (second compound 0.1 µM, first compound 1 µM) 42.2% | viability, T/C (second compound 0.1 µM, first compound 3.16 µM) 46.1% | viability, T/C (second compound 0.1 µM, first compound 10 µM) 38.8% | viability, T/C [2] 43.2% | viability, T/C (second compound 0.316 µM, first compound 0.1 µM) 44.5% | viability, T/C (second compound 0.316 µM, first compound 0.316 µM) 52.2% | viability, T/C (second compound 0.316 µM, first compound 1 µM) 44.5% | viability, T/C (second compound 0.316 µM, first compound 3.16 µM) 44.3% | viability, T/C (second compound 0.316 µM, first compound 10 µM) 36.4% | viability, T/C [3] 48.1% | viability, T/C (second compound 1 µM, first compound 0.1 µM) 44.8% | viability, T/C (second compound 1 µM, first compound 0.316 µM) 43.1% | viability, T/C (second compound 1 µM, first compound 1 µM) 48% | viability, T/C (second compound 1 µM, first compound 10 µM) 32.7% | viability, T/C [4] 47.5% | viability, T/C (second compound 3.16 µM, first compound 0.1 µM) 45.9% | viability, T/C (second compound 3.16 µM, first compound 0.316 µM) 36% | viability, T/C (second compound 3.16 µM, first compound 1 µM) 40.3% | viability, T/C (second compound 3.16 µM, first compound 3.16 µM) 37% | viability, T/C (second compound 3.16 µM, first compound 10 µM) 31.9% | viability, T/C [5] 40.6% | viability, T/C (second compound 10 µM, first compound 0.1 µM) 43.5% | viability, T/C (second compound 10 µM, first compound 0.316 µM) 38.5% | viability, T/C (second compound 10 µM, first compound 1 µM) 37.5% | viability, T/C (second compound 10 µM, first compound 3.16 µM) 34.8% | viability, T/C (second compound 10 µM, first compound 10 µM) 39.6%
< 31600 pM: IC50 (second compound 0.1 µM) | IC50 (second compound 0.316 µM) | IC50 (second compound 1 µM) | IC50 (second compound 3.16 µM) | IC50 (second compound 10 µM)
